This passage reports DC50 results from patent US11744844B2, “Selective estrogen receptor degraders” (Eli Lilly and Company, priority 2021, dated 2023).

The assay concerns the target T1, ERα (Homo sapiens, UniProt P03372).
T1 construct: measure the degradation of ERα by a test compound in an ERα positive breast cancer cell line such as MCF7; host or cells: MCF7
T1 sequence (P03372 1-595): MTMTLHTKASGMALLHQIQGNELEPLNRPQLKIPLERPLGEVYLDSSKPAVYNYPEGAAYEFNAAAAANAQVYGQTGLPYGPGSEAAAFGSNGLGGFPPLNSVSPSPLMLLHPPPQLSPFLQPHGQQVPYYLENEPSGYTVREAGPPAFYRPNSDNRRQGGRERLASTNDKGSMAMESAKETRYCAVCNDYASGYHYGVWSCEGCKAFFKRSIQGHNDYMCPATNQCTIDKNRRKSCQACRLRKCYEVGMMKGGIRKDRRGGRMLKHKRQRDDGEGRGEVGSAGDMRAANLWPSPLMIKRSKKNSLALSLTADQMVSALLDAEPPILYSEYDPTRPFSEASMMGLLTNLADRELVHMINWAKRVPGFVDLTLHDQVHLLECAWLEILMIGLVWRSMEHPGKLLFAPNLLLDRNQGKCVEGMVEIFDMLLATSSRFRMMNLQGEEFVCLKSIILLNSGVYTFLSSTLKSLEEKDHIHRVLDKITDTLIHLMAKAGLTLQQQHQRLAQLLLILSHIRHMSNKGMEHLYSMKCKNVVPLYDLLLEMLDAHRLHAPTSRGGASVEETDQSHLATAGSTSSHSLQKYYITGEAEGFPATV
Nature of the assay: ERα degradation assay in MCF7 cells. It counts as cell-based. The settings on record: 24 hours incubation, read-out: Relative IC50, ERα degradation (% ER positive cells). As to the method: The purpose of the following ERα degradation assay is to measure the degradation of ERα by a test compound in an ERα positive breast cancer cell line such as MCF7.
Culture MCF7 (purchased from ATCC HTB-22) cells in DMEM media supplemented with 10% FBS, 0.01 mg/mL human insulin 1 and 1% penicillin/streptomycin antibiotics and plate in 384-well flat-bottom plates at a density of 4,000 cells per well in phenol red free DMEM media (20 μL) containing 10% charcoal stripped FBS. Incubate the cells overnight in a cell culture incubator (5% CO2, 95% relative humidity and 37° C.) and allow the cells to attach to the plate. The following day dose the cells with the test compound. Use an Echo 555 acoustic dispenser to prepare test compound serial dilutions (1:3) in a range from 6 μM to 0.0003 μM. Dose the cells with the addition of 5 μL from the serial dilution plate to the cell plate producing a final DMSO concentration of 0.2% with a final test compound concentration dose range between 2 and 0.0001 μM. For the maximum point, use media containing 0.2% of DMSO and for the minimum point, use fulvestrant diluted at 2 μM final concentrations in the growth media containing 0.2% DMSO. […] Scan the plates with ACUMEN EXPLORER™ (Laser-scanning fluorescence microplate cytometer manufactured by TTP LABTECH LTD) to measure ERα. […]

Where a name gives a salt, the structure may show the parent alone.

Turning to `O=S(=O)(O)Oc1ccc2c3c(cnc2c1)-c1ccc(C(F)(F)F)cc1O[C@@H]3c1ccc(OCCN2CC(CF)C2)cc1` [Example 1, [(5R)-5-[4-[2-[3-(Fluoromethyl)azetidin-1-yl]ethoxy]phenyl]-8-(trifluoromethyl)-5H-chromeno[4,3-c]quinolin-2-yl]hydrogen sulfate], the DC50 was found to be 115 ± 18.4 nM.
For the compound `O=C(O)[C@H]1O[C@@H](Oc2ccc3c4c(cnc3c2)-c2ccc(C(F)(F)F)cc2O[C@@H]4c2ccc(OCCN3CC(CF)C3)cc2)[C@H](O)[C@@H](O)[C@@H]1O` [Example 2, (2S,3S,4S,5R,6S)-6-[[(5R)-5-[4-[2-[3-(Fluoromethyl)azetidin-1-yl]ethoxy]phenyl]-8-(trifluoromethyl)-5H-chromeno[4,3-c]quinolin-2-yl]oxy]-3,4,5-trihydroxy-tetrahydropyran-2-carboxylic acid], the DC50 stood at 211 ± 69.2 nM.
